From PubChem BioAssay AID248 (DTP/NCI, 2004)
Several values for one entry are separate records, joined by “and”; a condition that tells them apart may be missing. Equal values may be shown once. Inconclusive results and toxic doses are left out. Cut-off read from the data, not from the text of the source: active = T/C of 150% or more; inactive = T/C below 125%.

Tested on: L1210 leukemia ip in BDF1 mice, survival T/C
Experiment: NCI In Vivo Anticancer Drug Screen. Data for tumor model L1210 Leukemia (intraperitoneal) in B6D2F1 (BDF1) mice
Details: endpoint: mean survival time, higher = longer survival
Outline: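 Antitumor effect is assessed in tumor-bearing animals. Survival in the compound arm is compared with a vehicle-dosed control arm and expressed as their quotient.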

[1] = dose: 100.0 mg/kg/injection, schedule: Q01DX001 (ip), vehicle: saline
[2] = dose: 100.0 mg/kg/injection, schedule: Q04DX003 (ip), vehicle: saline with Tween-80
[3] = dose: 200.0 mg/kg/injection, schedule: Q01DX001 (ip), vehicle: saline
[4] = dose: 200.0 mg/kg/injection, schedule: Q04DX003 (ip), vehicle: saline with Tween-80
[5] = dose: 400.0 mg/kg/injection, schedule: Q01DX001 (ip), vehicle: saline
[6] = dose: 400.0 mg/kg/injection, schedule: Q04DX003 (ip), vehicle: saline with Tween-80
[7] = dose: 100.0 mg/kg/injection, schedule: Q04DX003 (ip), vehicle: Klucel (hydroxypropylcellulose) (HPC)
[8] = dose: 200.0 mg/kg/injection, schedule: Q04DX003 (ip), vehicle: Klucel (hydroxypropylcellulose) (HPC)
[9] = dose: 400.0 mg/kg/injection, schedule: Q04DX003 (ip), vehicle: Klucel (hydroxypropylcellulose) (HPC)
[10] = dose: 100.0 mg/kg/injection, schedule: Q04DX002 (ip), vehicle: saline
[11] = dose: 200.0 mg/kg/injection, schedule: Q04DX002 (ip), vehicle: saline

Measured: T/C

CCCCOC(N)=O
inactive: dose: 50.0 mg/kg/injection, schedule: Q01DX001 (ip), vehicle: saline 105 % of control | [1] 95 % of control | [2] 95 % of control and 100 % of control | [3] 93 % of control | [4] 95 % of control and 97 % of control | [5] 98 % of control | [6] 97 % of control and 102 % of control

C#CC(=O)OCC#CCOC(=O)C#C
inactive: dose: 1.56 mg/kg/injection, schedule: Q01DX009 (ip), vehicle: saline with Tween-80 111 % of control | dose: 3.12 mg/kg/injection, schedule: Q01DX009 (ip), vehicle: saline with Tween-80 101 % of control | dose: 6.25 mg/kg/injection, schedule: Q01DX009 (ip), vehicle: saline with Tween-80 87 % of control and 90 % of control

CN1CN(c2ccccc2)C2(CCN(Cc3cc(=O)c4ccccc4o3)CC2)C1=O
inactive: [7] 102 % of control | [8] 101 % of control | [9] 98 % of control

CN(C)CCCCNc1ccc(NCCCCN(C)C)c2c1C(=O)c1c(O)ccc(O)c1C2=O
inactive: [10] 99 % of control | [11] 105 % of control

CSc1nc(N)n(C)n1
inactive: [10] 123 % of control | [11] 104 % of control | dose: 400.0 mg/kg/injection, schedule: Q04DX002 (ip), vehicle: saline 93 % of control

O=C1OCOC1C1OCOC1=O (configuration not stated)
inactive: dose: 55.0 mg/kg/injection, schedule: Q01DX Z (ip), vehicle: methylcellulose (MC) 119 % of control | dose: 83.0 mg/kg/injection, schedule: Q01DX Z (ip), vehicle: methylcellulose (MC) 104 % of control | dose: 125.0 mg/kg/injection, schedule: Q01DX Z (ip), vehicle: methylcellulose (MC) 111 % of control

CC(=O)Oc1cc(C(c2ccccc2)c2ccccc2)ccc1N(C(C)=O)S(=O)(=O)c1ccccc1
inactive: [2] 92 % of control | [4] 88 % of control | [6] 92 % of control

CCOC(=N)c1cn(C2OC(CO)C(O)C2O)c2ncnc(N)c12 (configuration not stated)
inactive: dose: 0.12 mg/kg/injection, schedule: Q01DX009 (ip), vehicle: saline with Tween-80 120 % of control | dose: 0.12 mg/kg/injection, schedule: Q01DX009 (ip), vehicle: saline 109 % of control | dose: 0.18 mg/kg/injection, schedule: Q01DX009 (ip), vehicle: saline with Tween-80 120 % of control | dose: 0.18 mg/kg/injection, schedule: Q01DX009 (ip), vehicle: saline 123 % of control | dose: 0.27 mg/kg/injection, schedule: Q01DX009 (ip), vehicle: saline with Tween-80 117 % of control | dose: 0.27 mg/kg/injection, schedule: Q01DX009 (ip), vehicle: saline 121 % of control | dose: 0.6 mg/kg/injection, schedule: Q01DX009 (ip), vehicle: saline 118 % of control | dose: 0.9 mg/kg/injection, schedule: Q01DX009 (ip), vehicle: saline 112 % of control | dose: 1.3 mg/kg/injection, schedule: Q01DX009 (ip), vehicle: saline 96 % of control

COC(=O)C(CSc1ccccc1)NC(=O)c1ccccc1 (configuration not stated)
inactive: [7] 101 % of control | [8] 114 % of control | [9] 96 % of control

O=S(=O)(/N=[N+](\[O-])c1ccccc1)c1ccccc1
inactive: [1] 103 % of control | [3] 100 % of control | [5] 103 % of control

C=C1C(=O)OC2C3=C(C)C(=O)CC3C3(C)CC3C12 (configuration not stated)
inactive: dose: 50.0 mg/kg/injection, schedule: Q01DX001 (ip), vehicle: water 103 % of control

C=CCN(C=O)CC=C
inactive: dose: 100.0 mg/kg/injection, schedule: Q01DX009 (ip), vehicle: saline 101 % of control

O=S(=O)(NOCCCCONS(=O)(=O)c1ccccc1)c1ccccc1
inactive: dose: 100.0 mg/kg/injection, schedule: Q01DX001 (ip), vehicle: saline with Tween-80 88 % of control | dose: 200.0 mg/kg/injection, schedule: Q01DX001 (ip), vehicle: saline with Tween-80 95 % of control | dose: 400.0 mg/kg/injection, schedule: Q01DX001 (ip), vehicle: saline with Tween-80 97 % of control

c1ccc(SCc2ccncc2)nc1
inactive: [1] 100 % of control | [3] 92 % of control | [5] 88 % of control
